Data set [1] has as its target CFTR-mediated chloride transport in human intestinal epithelial enteroid cells (Homo sapiens, UniProt P13569). As to the kind of experiment: Membrane potential dye, Enteroid Assay A. The data set is classed as cell-based. The settings on record: for EC50: read-out: Ent. A EC50. The method, boiled down:
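Membrane potential dye (20 μM methyl oxonol, with 30 μM CaCCinh-A01 and 30 μM Chicago Sky Blue) loaded 25 min at room temperature into ROCK-inhibitor-seeded human enteroid cells. Chloride-free stimulation buffer triggered transport, followed by 15 min fluorescence. % Activity relative to 3 μM/3 μM/300 nM triple-combination control.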

For data set [2] the following is noted: amide bond, 13-membered ring.
Setting [3] is: enteroid cells incubated with test compound 18-24 hours, acute 10 μM forskolin and 300 nM N-[2,4-bis(1,1-dimethylethyl)-5-hydroxyphenyl]-1,4-dihydro-4-oxoquinoline-3-carboxamide.
Where [4] appears, read: percentage of chloride transport of triple combination control (3 μM N-[(6-amino-2-pyridyl)sulfonyl]-6-(3-fluoro-5-isobutoxy-phenyl)-2-[(4S)-2,2,4-trimethylpyrrolidin-1-yl]pyridine-3-carboxamide based).

Where two headings read alike, the source gives them in different places. Where only a bound is given, the exact number is not on record here.

Chain of CFTR-mediated chloride transport in human intestinal epithelial enteroid cells (P13569 with tags, fused parts or gaps DEL508-508): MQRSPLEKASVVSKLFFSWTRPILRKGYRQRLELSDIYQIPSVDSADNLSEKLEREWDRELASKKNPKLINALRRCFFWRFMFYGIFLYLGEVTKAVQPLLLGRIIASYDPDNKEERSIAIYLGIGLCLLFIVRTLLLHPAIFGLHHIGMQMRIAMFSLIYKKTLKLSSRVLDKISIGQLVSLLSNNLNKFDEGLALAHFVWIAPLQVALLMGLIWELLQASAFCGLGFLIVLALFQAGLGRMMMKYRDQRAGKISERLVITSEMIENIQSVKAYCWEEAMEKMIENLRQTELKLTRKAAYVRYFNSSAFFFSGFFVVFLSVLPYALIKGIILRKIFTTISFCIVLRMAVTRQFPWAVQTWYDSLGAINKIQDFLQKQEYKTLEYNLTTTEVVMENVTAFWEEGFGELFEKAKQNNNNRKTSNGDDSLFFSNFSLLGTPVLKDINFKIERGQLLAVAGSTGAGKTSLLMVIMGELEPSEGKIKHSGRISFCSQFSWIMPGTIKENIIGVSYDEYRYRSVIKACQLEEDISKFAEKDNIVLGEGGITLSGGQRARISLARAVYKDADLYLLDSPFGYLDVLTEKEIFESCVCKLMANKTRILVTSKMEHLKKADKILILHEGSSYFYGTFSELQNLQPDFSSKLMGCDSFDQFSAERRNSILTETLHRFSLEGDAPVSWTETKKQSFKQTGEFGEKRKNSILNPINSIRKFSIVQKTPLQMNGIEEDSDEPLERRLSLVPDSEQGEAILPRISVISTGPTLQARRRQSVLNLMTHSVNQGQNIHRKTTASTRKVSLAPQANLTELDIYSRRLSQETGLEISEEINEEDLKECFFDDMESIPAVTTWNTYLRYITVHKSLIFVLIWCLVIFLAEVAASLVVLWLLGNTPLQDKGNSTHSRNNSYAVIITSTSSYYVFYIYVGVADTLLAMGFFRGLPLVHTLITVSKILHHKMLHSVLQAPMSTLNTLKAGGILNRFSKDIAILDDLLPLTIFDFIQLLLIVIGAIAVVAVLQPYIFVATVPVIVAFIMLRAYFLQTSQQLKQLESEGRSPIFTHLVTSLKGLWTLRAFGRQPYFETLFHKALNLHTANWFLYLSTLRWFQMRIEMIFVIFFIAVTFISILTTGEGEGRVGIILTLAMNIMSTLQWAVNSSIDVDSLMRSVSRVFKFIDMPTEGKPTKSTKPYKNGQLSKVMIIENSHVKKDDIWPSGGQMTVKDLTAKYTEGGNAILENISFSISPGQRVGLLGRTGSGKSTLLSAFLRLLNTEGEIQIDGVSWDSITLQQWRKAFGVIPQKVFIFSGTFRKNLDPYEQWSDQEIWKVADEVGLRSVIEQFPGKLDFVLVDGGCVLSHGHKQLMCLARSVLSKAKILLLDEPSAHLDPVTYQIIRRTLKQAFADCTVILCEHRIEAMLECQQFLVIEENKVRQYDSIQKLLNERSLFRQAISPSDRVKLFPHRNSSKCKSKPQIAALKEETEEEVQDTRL

For `Cc1cccc(C)c1-c1cc2nc(n1)NS(=O)(=O)c1cccc(c1)C(=O)N1CCN(C(=O)OC(C)(C)C)CC1C(C)O2` (stereo not shown) [Compound 173, tert-Butyl 13-(2,6-dimethylphenyl)-9-methyl-2,17,17-trioxo-10-oxa-17λ^6-thia-3,6,14,16,23-pentaazatetracyclo[16.3.1.111,15.03,8]tricosa-1(22),11,13,15(23),18,20-hexaene-6-carboxylate], the 50% effective concentration (EC50) – broadly, the concentration that produces a half-maximal response – in data set [1] (setting [3]) fell in the range of 1 to 3 µM. The “Ent. A Max Activity (%)” value in data set [1] (setting [4]) is on record as “++ (++ is 30-60%)”. Also, the ring closure, yield after HPLC in data set [2] (from Cc1cccc(C)c1-c1cc(OC(C)C2CN(C(=O)OC(C)(C)C)CCN2)nc(NS(=O)(=O)c2cccc(C(=O)O)c2)n1, HATU/DIEA, DMF, 10.9 mM, 25.0 °C, 0.5 h) amounted to 19%.
Consider `Cc1cccc(C)c1-c1cc2nc(n1)NS(=O)(=O)c1cccc(c1)C(=O)N1CCN(C(=O)OC(C)(C)C)CC1C(Cc1ccccc1)O2` (stereo not shown) [Compound 175, tert-butyl 9-benzyl-13-(2,6-dimethylphenyl)-2,17,17-trioxo-10-oxa-17λ^6-thia-3,6,14,16,23-pentaazatetracyclo[16.3.1.111,15.03,8]tricosa-1(22),11,13,15(23),18,20-hexaene-6-carboxylate], for which, in data set [1] (Enteroid Assay A), the “Ent. A Max Activity (%)” value was “++ (++ is 30-60%)” and the EC50 is below 1 µM. Further, in data set [2] (from Cc1cccc(C)c1-c1cc(OC(Cc2ccccc2)C2CN(C(=O)OC(C)(C)C)CCN2)nc(NS(=O)(=O)c2cccc(C(=O)O)c2)n1, HATU/DIEA, DMF, 10.8 mM, 25.0 °C, 0.083 h), the ring closure, yield after HPLC came out at 55%.
As to `Cc1cccc(C)c1-c1cc2nc(n1)NS(=O)(=O)c1cccc(c1)C(=O)N1Cc3cc(C(C)(C)C)ccc3[C@@H](O2)[C@H]1CC(C)(C)C` [Compound 189, (16R,24R)-20-tert-butyl-12-(2,6-dimethylphenyl)-24-(2,2-dimethylpropyl)-15-oxa-8λ^6-thia-1,9,11,25-tetraazapentacyclo[14.7.1.13,7.110,14.017,22]hexacosa-3(26),4,6,10(25),11,13,17,19,21-nonaene-2,8,8-trione], the EC50 in data set [1] (Enteroid Assay A) was below 1 µM. Also, the ring closure, yield after HPLC in data set [2] (from Cc1cccc(C)c1-c1cc(O[C@@H]2c3ccc(C(C)(C)C)cc3CN[C@@H]2CC(C)(C)C)nc(NS(=O)(=O)c2cccc(C(=O)O)c2)n1, HATU/NaOtBu, DMF/THF, 0.25 h, 2 steps) is 0.35%.
With `Cc1ccccc1-c1cc2nc(n1)NS(=O)(=O)c1cccc(c1)C(=O)N1Cc3ccccc3[C@@H](O2)[C@H]1CC(C)C` [Compound 192, (16R,24R)-12-(2-Methylphenyl)-24-(2-methylpropyl)-15-oxa-8λ^6-thia-1,9,11,25-tetraazapentacyclo[14.7.1.13,7.110,14.017,22]hexacosa-3(26),4,6,10,12,14(25),17,19,21-nonaene-2,8,8-trione], the 50% effective concentration (EC50) in data set [1] (Enteroid Assay A) was below 1 µM. Besides, in data set [2] (from Cc1ccccc1-c1cc(O[C@@H]2c3ccccc3CN[C@@H]2CC(C)C)nc(NS(=O)(=O)c2cccc(C(=O)O)c2)n1, HATU/DIEA, DMF, 424.0 mM, 0.5 h, 3 steps), the ring closure, yield after HPLC amounted to 9%.
For the compound `Cc1cccc(C)c1-c1cc2nc(n1)NS(=O)(=O)c1cccc(c1)C(=O)N1Cc3cnccc3C(C1)O2` (stereo not shown) [Compound 194, 12-(2,6-Dimethylphenyl)-15-oxa-8λ^6-thia-1,9,11,20,25-pentaazapentacyclo[14.7.1.13,7.110,14.017,22]hexacosa-3(26),4,6,10,12,14(25),17,19,21-nonaene-2,8,8-trione], in data set [1] (setting [3]), the EC50 was in the range of 3 to 30 µM. In data set [1] (setting [4]), the “Ent. A Max Activity (%)” value is reported as “++ (++ is 30-60%)”. In data set [2] (from Cc1cccc(C)c1-c1cc(OC2CNCc3cnccc32)nc(NS(=O)(=O)c2cccc(C(=O)O)c2)n1, HATU/DIEA, DMF, 19.0 mM, 0.5 h, 3 steps), this compound displayed a ring closure, yield after HPLC of 1%.
Turning to `Cc1cccc(C)c1-c1cc2nc(n1)NS(=O)(=O)c1cccc(c1)C(=O)N1Cc3ncccc3C(C1)O2` (stereo not shown) [Compound 198, 12-(2,6-Dimethylphenyl)-15-oxa-8λ^6-thia-1,9,11,21,25-pentaazapentacyclo[14.7.1.13,7.110,14.017,22]hexacosa-3,5,7(26),10(25),11,13,17,19,21-nonaene-2,8,8-trione], the EC50 in data set [1] (setting [3]) fell in the range of 1 to 3 µM. For the same compound, the “Ent. A Max Activity (%)” value in data set [1] (setting [4]) is reported as “++ (++ is 30-60%)”. Besides, the ring closure, yield after HPLC in data set [2] (from Cc1cccc(C)c1-c1cc(OC2CNCc3ncccc32)nc(NS(=O)(=O)c2cccc(C(=O)O)c2)n1, HATU/DIEA, NMP, 132.0 mM, 25.0 °C, 1.0 h) came to 44%.
Turning to `Cc1cccc(C)c1-c1cc2nc(n1)NS(=O)(=O)c1cccc(c1)C(=O)N1CC[C@@H](C1)O2` [Compound 213, (3S)-17-(2,6-Dimethylphenyl)-2-oxa-13λ^6-thia-6,14,16,19-tetraazatetracyclo[13.3.1.13,6.18,12]henicosa-1(19),8(20),9,11,15,17-hexaene-7,13,13-trione], in data set [1] (setting [3]), the EC50 is 3 to 30 µM. The “Ent. A Max Activity (%)” value in data set [1] (setting [4]) was “+++ (+++ is >60%)”. Further, the ring closure, yield after HPLC in data set [2] (from Cc1cccc(C)c1-c1cc(O[C@H]2CCNC2)nc(NS(=O)(=O)c2cccc(C(=O)O)c2)n1, HATU/TEA, DMF, 53.7 mM, 25.0 °C, 1.0 h) was 20%.

These data come from patent publication US20240018161A1, “MODULATORS OF CYSTIC FIBROSIS TRANSMEMBRANE CONDUCTANCE REGULATOR” (VERTEX PHARMACEUTICALS INCORPORATED, priority 2020, published 2024).
